Legend:
Assay in all cases: Multidrug resistance-reversing activity: effect on paclitaxel's cytotoxicity
Assay type in all cases: cell-based
MES-SA/DX5 = settings: Homo sapiens, TAX alone
Method: (§1) The cyclic pentadepsipeptides of Chemical Formulas 1 and 2 were analyzed for MDR-reversing activity by comparing inhibitory activities against multidrug-resistant cancer cell lines (MES-SA/DX5 and HCT15/CL02) with those against non-multidrug-resistant cancer cell lines (MES-SA and HCT15). In this regard, the effects of the cyclic pentadepsipeptides of Chemical Formulas 1 and 2 on paclitaxel's cytotoxicity against MDR tumor cells were measured (Table 6).

MES-SA = settings: Homo sapiens, TAX alone
Method: as §1

HCT15/CL02 = settings: Homo sapiens, HCT-15, TAX alone
Method: as §1

HCT15 = settings: Homo sapiens, HCT-15, TAX alone
Method: as §1

With `CC(=O)O[C@H]1C(=O)[C@@]2(C)[C@H]([C@H](OC(=O)c3ccccc3)[C@]3(O)C[C@H](OC(=O)[C@H](O)[C@@H](NC(=O)c4ccccc4)c4ccccc4)C(C)=C1C3(C)C)[C@]1(OC(C)=O)CO[C@@H]1C[C@@H]2O` [TAX, paclitaxel] the EC50 (MES-SA/DX5) was 10 ± 0.53 nM, the EC50 (MES-SA) was 1 ± 0.2 nM and the EC50 (HCT15/CL02) was > 1000 nM. For the same compound, the EC50 (HCT15) was 0.85 ± 0.63 nM.

Reference: patent publication US9260485B2 (priority 2009, dated 2016)
